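Grown in 96-well plates, cells were treated for 48 hours with each compound at five concentrations. Insufficient inhibition: endpoint recorded as highest concentration tested. The concentration for 50% growth inhibition is given as GI50.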 Calls of active or inactive are those of the source. Rule as the data show it: active = GI50 up to about 1.1 µM and inactive = higher.
Experiments:
Test in all cases: inhibition of tumour cell growth, NCI panel, 48 h
UACC-62 = system: UACC-62
SK-OV-3 = system: SK-OV-3
HOP-92 = system: HOP-92
SW-620 = system: SW-620
LOX IMVI = system: LOX IMVI
NCI-H23 = system: NCI-H23
COLO 205 = system: COLO 205
DLD-1 = system: DLD-1
OVCAR-5 = system: OVCAR-5
OVCAR-8 = system: OVCAR-8
OVCAR-4 = system: OVCAR-4
NCI-H226 = system: NCI-H226
Malme-3M = system: Malme-3M
SK-MEL-5 = system: SK-MEL-5
RXF 393 = system: RXF 393
IGROV-1 = system: IGROV-1
Hs-578T = system: Hs-578T
A498 = system: A498
BT-549 = system: BT-549
NCI/ADR-RES = system: NCI/ADR-RES

Structure (SMILES) | GI50 (UACC-62) | GI50 (SK-OV-3) | GI50 (HOP-92) | GI50 (SW-620) | GI50 (LOX IMVI) | GI50 (NCI-H23) | GI50 (COLO 205) | GI50 (DLD-1) | GI50 (OVCAR-5) | GI50 (OVCAR-8) | GI50 (OVCAR-4) | GI50 (NCI-H226) | GI50 (Malme-3M) | GI50 (SK-MEL-5) | GI50 (RXF 393) | GI50 (IGROV-1) | GI50 (Hs-578T) | GI50 (A498) | GI50 (BT-549) | GI50 (NCI/ADR-RES)
COc1cc(C=C2C(=O)NC(=O)NC2=O)cc(OC)c1OC | > 100 µM (inactive) | > 100 µM (inactive) | > 100 µM (inactive) | > 100 µM (inactive) | > 100 µM (inactive) | > 100 µM (inactive) | > 100 µM (inactive) | > 100 µM (inactive) | > 100 µM (inactive) | > 100 µM (inactive) | > 100 µM (inactive) | > 100 µM (inactive) | > 100 µM (inactive) | > 100 µM (inactive) | > 100 µM (inactive) |  |  |  |  | 
COc1cc2oc(-c3ccc4c(c3)OCO4)c(OC)c(=O)c2c(OC)c1O | 54.3 µM (inactive) | 39.4 µM (inactive) | 13.6 µM (inactive) | > 100 µM (inactive) | 32.7 µM (inactive) | > 100 µM (inactive) | > 100 µM (inactive) |  | > 100 µM (inactive) | 32.8 µM (inactive) | 59.3 µM (inactive) | > 100 µM (inactive) | > 100 µM (inactive) | 25.4 µM (inactive) | > 100 µM (inactive) | 37.5 µM (inactive) | 61 µM (inactive) | 45.4 µM (inactive) | 31.4 µM (inactive) | 66.8 µM (inactive)
O=C(N[C@@H](c1ccccc1)[C@@H](O)C(=O)OCc1ccc([N+](=O)[O-])cc1)c1ccccc1 | > 100 µM (inactive) | > 100 µM (inactive) | > 100 µM (inactive) | > 100 µM (inactive) | > 100 µM (inactive) | > 100 µM (inactive) | > 100 µM (inactive) |  | > 100 µM (inactive) | > 100 µM (inactive) | > 100 µM (inactive) | > 100 µM (inactive) | > 100 µM (inactive) | 75.9 µM (inactive) | > 100 µM (inactive) | > 100 µM (inactive) | > 100 µM (inactive) | > 100 µM (inactive) | > 100 µM (inactive) | > 100 µM (inactive)
Cc1ccc(N2CCN(CCC(=O)O)CC2)cc1 | > 100 µM (inactive) | > 100 µM (inactive) | > 100 µM (inactive) | > 100 µM (inactive) | > 100 µM (inactive) | > 100 µM (inactive) | > 100 µM (inactive) |  | > 100 µM (inactive) | > 100 µM (inactive) | > 100 µM (inactive) | > 100 µM (inactive) | > 100 µM (inactive) | > 100 µM (inactive) | > 100 µM (inactive) | > 100 µM (inactive) | > 100 µM (inactive) | > 100 µM (inactive) | > 100 µM (inactive) | > 100 µM (inactive)
CCCCN(CCCC)C(=Nc1ccccc1)N(CCCC)CCCC |  | 8.43 µM (inactive) | 1.62 µM (inactive) | 3.54 µM (inactive) | 3.15 µM (inactive) | 2.19 µM (inactive) | 2.77 µM (inactive) | 6.38 µM (inactive) | 5.78 µM (inactive) | 9.25 µM (inactive) |  |  | 7.94 µM (inactive) |  | 5.02 µM (inactive) | 3.15 µM (inactive) |  | 9.62 µM (inactive) |  | 
Cc1c(-c2coc(-c3ccc([N+](=O)[O-])cc3)n2)c(=O)n(-c2ccccc2)n1C | > 100 µM (inactive) | > 100 µM (inactive) | > 100 µM (inactive) |  | > 100 µM (inactive) | > 100 µM (inactive) | > 100 µM (inactive) | > 100 µM (inactive) | > 100 µM (inactive) | > 100 µM (inactive) | > 100 µM (inactive) | > 100 µM (inactive) | > 100 µM (inactive) | > 100 µM (inactive) |  | > 100 µM (inactive) |  | > 100 µM (inactive) |  | 
Clc1ccc(C2ON=C(c3ccccc3)N2C23CC4CC(CC(C4)C2)C3)cc1Cl (centres undefined) | > 10 µM (inactive) | > 10 µM (inactive) | 7.13 µM (inactive) | > 10 µM (inactive) | > 10 µM (inactive) | > 10 µM (inactive) | > 10 µM (inactive) |  | > 10 µM (inactive) | > 10 µM (inactive) | > 10 µM (inactive) | > 10 µM (inactive) | > 10 µM (inactive) | > 10 µM (inactive) | > 10 µM (inactive) | > 10 µM (inactive) | > 10 µM (inactive) | > 10 µM (inactive) | > 10 µM (inactive) | > 10 µM (inactive)
O=C(c1ccccc1)C1S(=O)(=O)OCCOS1(=O)=O | > 100 µM (inactive) | > 100 µM (inactive) | > 100 µM (inactive) | > 100 µM (inactive) | > 100 µM (inactive) | > 100 µM (inactive) | > 100 µM (inactive) | > 100 µM (inactive) |  | > 100 µM (inactive) | > 100 µM (inactive) |  | > 100 µM (inactive) | > 100 µM (inactive) |  | > 100 µM (inactive) |  |  |  | 
Cc1ccc(NC(=O)OCC(COc2ccc(Cl)cc2Cl)OC(=O)Nc2ccc(C)cc2)cc1 (centres undefined) | > 100 µM (inactive) | > 100 µM (inactive) | 53.7 µM (inactive) | > 100 µM (inactive) |  | > 100 µM (inactive) | > 100 µM (inactive) | > 100 µM (inactive) | > 100 µM (inactive) | 12.5 µM (inactive) | 33.2 µM (inactive) | 46.3 µM (inactive) | > 100 µM (inactive) |  | 79.4 µM (inactive) | > 100 µM (inactive) |  | > 100 µM (inactive) |  | 
Cn1c2ccccc2c2c(=S)c3ccccc3ccc21 | > 100 µM (inactive) | > 100 µM (inactive) | > 100 µM (inactive) | > 100 µM (inactive) | 62.1 µM (inactive) | > 100 µM (inactive) | 67.3 µM (inactive) |  | > 100 µM (inactive) | 56.5 µM (inactive) | 44.6 µM (inactive) | 50.5 µM (inactive) | > 100 µM (inactive) | 44.6 µM (inactive) | > 100 µM (inactive) | 81.8 µM (inactive) | > 100 µM (inactive) | > 100 µM (inactive) | > 100 µM (inactive) | > 100 µM (inactive)
COc1ccccc1NC(=O)CC(=O)n1nc(C)c(/N=N/c2ccccc2C(=O)O)c1C | 59.7 µM (inactive) | > 100 µM (inactive) |  | > 100 µM (inactive) | > 100 µM (inactive) | 88.9 µM (inactive) | > 100 µM (inactive) | > 100 µM (inactive) | > 100 µM (inactive) | > 100 µM (inactive) | > 100 µM (inactive) |  | > 100 µM (inactive) | 68.1 µM (inactive) |  | > 100 µM (inactive) |  | 90.4 µM (inactive) |  | 
O=C1C2c3[nH]c4ccccc4c3C3CCCCCCC3C2C(=O)N1c1ccccc1 (centres undefined) | 32.9 µM (inactive) | 2.44 µM (inactive) |  | 8.61 µM (inactive) | 5 µM (inactive) | 21 µM (inactive) | 7.64 µM (inactive) | > 10 µM (inactive) |  | 4.32 µM (inactive) | 3.87 µM (inactive) |  | 3.33 µM (inactive) | 33 µM (inactive) | 7.74 µM (inactive) | > 10 µM (inactive) |  | 15.5 µM (inactive) |  | 
CC/C=C/C(/C=C/C[C@]1(CC)C[C@H](CC)[C@H](CC(=O)O)OO1)CC (some centres undefined) | 5.94 µM (inactive) | 4.23 µM (inactive) | 1.99 µM (inactive) | 2.12 µM (inactive) | 0.33 µM (active) | 2.24 µM (inactive) | 1.78 µM (inactive) |  | 2.34 µM (inactive) | 2.9 µM (inactive) | 1.52 µM (inactive) | 20.8 µM (inactive) | 12.4 µM (inactive) | 2.85 µM (inactive) | 2.19 µM (inactive) | 0.353 µM (active) | 1.91 µM (inactive) | 14.3 µM (inactive) | 6.28 µM (inactive) | 2.1 µM (inactive)
COC(=O)c1nc(NC#N)nc(O)c1C | > 61.1 µM (inactive) | > 100 µM (inactive) | 50.2 µM (inactive) | > 100 µM (inactive) | > 100 µM (inactive) | > 78.7 µM (inactive) | > 100 µM (inactive) | > 100 µM (inactive) | > 100 µM (inactive) | > 100 µM (inactive) | > 100 µM (inactive) |  | > 100 µM (inactive) | > 100 µM (inactive) | > 100 µM (inactive) | > 72.9 µM (inactive) |  | > 100 µM (inactive) |  | 
O=C1C2CCC(C2)C12CC1(c3ccccc3)C(=O)c3ccccc3N1O2 (centres undefined) | 91.8 µM (inactive) | > 100 µM (inactive) | 42.7 µM (inactive) | > 100 µM (inactive) |  | > 100 µM (inactive) | > 100 µM (inactive) | > 100 µM (inactive) |  | > 100 µM (inactive) | 75.5 µM (inactive) | > 100 µM (inactive) | > 100 µM (inactive) | > 100 µM (inactive) | > 100 µM (inactive) | > 100 µM (inactive) |  | > 100 µM (inactive) |  | 
C[C@@H](NC1CCCC[C@@H]1O)c1ccccc1 (some centres undefined) | > 100 µM (inactive) | > 100 µM (inactive) | > 100 µM (inactive) | > 100 µM (inactive) | > 100 µM (inactive) |  | > 100 µM (inactive) | > 100 µM (inactive) | > 100 µM (inactive) | > 100 µM (inactive) | > 100 µM (inactive) | > 100 µM (inactive) | > 100 µM (inactive) | > 100 µM (inactive) | > 100 µM (inactive) | > 100 µM (inactive) |  |  |  | 
CC/C=C/c1cc2cc[nH]c2c2c1C(C)C[C@@H]2C (some centres undefined) | 17.8 µM (inactive) | 63.8 µM (inactive) | 24.2 µM (inactive) | 31.9 µM (inactive) | 17.1 µM (inactive) | 21.4 µM (inactive) | 18.2 µM (inactive) | 34.2 µM (inactive) |  | 26.1 µM (inactive) |  | 15.1 µM (inactive) | > 100 µM (inactive) | 21.6 µM (inactive) | 17.7 µM (inactive) | 40.4 µM (inactive) |  | 16.3 µM (inactive) |  | 
